Measurements: ChEMBL document CHEMBL1201862, “PubChem BioAssay data set” (2004)
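A five-concentration, 48-hour dose response in 96-well plates underlies each endpoint, interpolated linearly between surrounding concentrations. Here, GI50 denotes the concentration required for 50% inhibition of growth.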 Calls of active or inactive are those of the source. Cut-off read from the data, not from the text of the source: active = GI50 up to about 1.1 µM and inactive = higher.

Legend:
Assay in all cases: DTP human tumour cell line panel, 48 h
IGROV-1 = test system: IGROV-1
MOLT-4 = test system: MOLT-4
SR = test system: SR
NCI-H23 = test system: NCI-H23
ACHN = test system: ACHN
NCI-H522 = test system: NCI-H522
CCRF-CEM = test system: CCRF-CEM
UACC-257 = test system: UACC-257
DMS-114 = test system: DMS-114
SK-MEL-2 = test system: SK-MEL-2
NCI-H460 = test system: NCI-H460
UO-31 = test system: UO-31
HT-29 = test system: HT-29
OVCAR-4 = test system: OVCAR-4
COLO 205 = test system: COLO 205
RPMI-8226 = test system: RPMI-8226
HCT-116 = test system: HCT-116
KM12 = test system: KM12
M19-MEL = test system: M19-MEL
OVCAR-3 = test system: OVCAR-3
SF-539 = test system: SF-539
SNB-75 = test system: SNB-75
LXFL 529 = test system: LXFL 529
SF-268 = test system: SF-268
SK-MEL-28 = test system: SK-MEL-28
SNB-78 = test system: SNB-78
SNB-19 = test system: SNB-19
K562 = test system: K562
RXF 393 = test system: RXF 393
HOP-62 = test system: HOP-62
HCC 2998 = test system: HCC 2998
HOP-92 = test system: HOP-92
SK-OV-3 = test system: SK-OV-3
A498 = test system: A498
SF-295 = test system: SF-295
UACC-62 = test system: UACC-62
M14 = test system: M14
NCI/ADR-RES = test system: NCI/ADR-RES
MCF7 = test system: MCF7
CAKI-1 = test system: CAKI-1
TK-10 = test system: TK-10
OVCAR-8 = test system: OVCAR-8
A549 = test system: A549
Malme-3M = test system: Malme-3M
BT-549 = test system: BT-549
Hs-578T = test system: Hs-578T
MDA-N = test system: MDA-N
NCI-H226 = test system: NCI-H226
MDA-MB-435 = test system: MDA-MB-435
786-0 = test system: 786-0
HL-60 = test system: HL-60
MDA-MB-231 = test system: MDA-MB-231
EKVX = test system: EKVX
SK-MEL-5 = test system: SK-MEL-5
SN12C = test system: SN12C
T47D = test system: T47D
OVCAR-5 = test system: OVCAR-5
LOX IMVI = test system: LOX IMVI
PC-3 = test system: PC-3
HCT-15 = test system: HCT-15
U-251 = test system: U-251
DU-145 = test system: DU-145
SW-620 = test system: SW-620

COc1cc2ccc1NC(=O)N1CCN(CC1)C(=O)Nc1ccc(cc1OC)-c1ccc(c(OC)c1)NC(=O)N1CCN(CC1)C(=O)Nc1ccc-2cc1OC
GI50 (IGROV-1): > 100 µM (inactive)
GI50 (MOLT-4): > 100 µM (inactive)
GI50 (SR): > 100 µM (inactive)
GI50 (NCI-H23): > 100 µM (inactive)
GI50 (ACHN): > 100 µM (inactive)
GI50 (NCI-H522): > 100 µM (inactive)
GI50 (CCRF-CEM): > 100 µM (inactive)
GI50 (UACC-257): > 100 µM (inactive)
GI50 (DMS-114): > 100 µM (inactive)
GI50 (SK-MEL-2): > 100 µM (inactive)
GI50 (NCI-H460): > 100 µM (inactive)
GI50 (UO-31): > 100 µM (inactive)
GI50 (HT-29): > 100 µM (inactive)
GI50 (OVCAR-4): > 100 µM (inactive)
GI50 (COLO 205): > 100 µM (inactive)
GI50 (RPMI-8226): > 100 µM (inactive)
GI50 (HCT-116): > 100 µM (inactive)
GI50 (KM12): > 100 µM (inactive)
GI50 (M19-MEL): > 100 µM (inactive)
GI50 (OVCAR-3): > 100 µM (inactive)
GI50 (SF-539): > 100 µM (inactive)
GI50 (SNB-75): > 100 µM (inactive)
GI50 (LXFL 529): > 100 µM (inactive)
GI50 (SF-268): > 100 µM (inactive)
GI50 (SK-MEL-28): > 100 µM (inactive)
GI50 (SNB-78): > 100 µM (inactive)
GI50 (SNB-19): > 100 µM (inactive)
GI50 (K562): > 100 µM (inactive)
GI50 (RXF 393): > 100 µM (inactive)
GI50 (HOP-62): > 100 µM (inactive)
GI50 (HCC 2998): > 100 µM (inactive)
GI50 (HOP-92): > 100 µM (inactive)
GI50 (SK-OV-3): > 100 µM (inactive)
GI50 (A498): > 100 µM (inactive)
GI50 (SF-295): > 100 µM (inactive)
GI50 (UACC-62): > 100 µM (inactive)
GI50 (M14): > 100 µM (inactive)

C=C1CC2(CC(c3ccccc3OC)OC(c3ccccc3OC)C2)OC1=O (stereo unspecified)
GI50 (NCI/ADR-RES): 2.47 µM (inactive)
GI50 (IGROV-1): 1.74 µM (inactive)
GI50 (MCF7): 1.67 µM (inactive)
GI50 (MOLT-4): 2.07 µM (inactive)
GI50 (SR): 1.84 µM (inactive)
GI50 (NCI-H23): 2.1 µM (inactive)
GI50 (CAKI-1): 2.47 µM (inactive)
GI50 (TK-10): 1.71 µM (inactive)
GI50 (OVCAR-8): 1.8 µM (inactive)
GI50 (ACHN): 2.29 µM (inactive)
GI50 (A549): 4.76 µM (inactive)
GI50 (Malme-3M): 1.72 µM (inactive)
GI50 (NCI-H522): 1.5 µM (inactive)
GI50 (CCRF-CEM): 1.71 µM (inactive)
GI50 (BT-549): 1.64 µM (inactive)
GI50 (UACC-257): 2.07 µM (inactive)
GI50 (SK-MEL-2): 1.91 µM (inactive)
GI50 (NCI-H460): 5.75 µM (inactive)
GI50 (UO-31): 1.52 µM (inactive)
GI50 (HT-29): 2.06 µM (inactive)
GI50 (OVCAR-4): 4.35 µM (inactive)
GI50 (Hs-578T): 2.02 µM (inactive)
GI50 (COLO 205): 2.36 µM (inactive)
GI50 (MDA-N): 1.83 µM (inactive)
GI50 (NCI-H226): 8.41 µM (inactive)
GI50 (MDA-MB-435): 1.91 µM (inactive)
GI50 (RPMI-8226): 0.25 µM (active)
GI50 (HCT-116): 1.78 µM (inactive)
GI50 (KM12): 2.27 µM (inactive)
GI50 (786-0): 1.63 µM (inactive)
GI50 (HL-60): 0.771 µM (active)
GI50 (MDA-MB-231): 1.77 µM (inactive)
GI50 (OVCAR-3): 1.87 µM (inactive)
GI50 (SF-539): 2.15 µM (inactive)
GI50 (EKVX): 14.6 µM (inactive)
GI50 (SNB-75): 2.59 µM (inactive)
GI50 (SF-268): 2.55 µM (inactive)
GI50 (SK-MEL-28): 1.45 µM (inactive)
GI50 (SK-MEL-5): 2.58 µM (inactive)
GI50 (SN12C): 1.97 µM (inactive)
GI50 (T47D): 1.72 µM (inactive)
GI50 (OVCAR-5): 7.46 µM (inactive)
GI50 (SNB-19): 7.55 µM (inactive)
GI50 (K562): 2.06 µM (inactive)
GI50 (RXF 393): 1.81 µM (inactive)
GI50 (LOX IMVI): 1.47 µM (inactive)
GI50 (HOP-62): 13.6 µM (inactive)
GI50 (HCC 2998): 2.49 µM (inactive)
GI50 (PC-3): 2.06 µM (inactive)
GI50 (HOP-92): 1.64 µM (inactive)
GI50 (SK-OV-3): 12.8 µM (inactive)
GI50 (HCT-15): 2.28 µM
GI50 (A498): 5.81 µM (inactive)
GI50 (SF-295): 7.38 µM (inactive)
GI50 (U-251): 7.16 µM (inactive)
GI50 (UACC-62): 2.18 µM (inactive)
GI50 (DU-145): 7.8 µM (inactive)
GI50 (SW-620): 1.72 µM (inactive)
GI50 (M14): 1.72 µM (inactive)
